Reference: patent publication US7642265B2, “Benzimidazoles and analogs thereof as antivirals” (Isis Pharmaceuticals, Inc., priority 2002, dated 2010)
Where two headings read alike, the source gives them in different places. Blank lines part the entries; values can stand above or below the molecule they belong to.

Experiments:
[1] = system: stem IIa region of the HCV IRES (5′-UTR of HCV RNA); assay: Mass spectrometry based binding assay; conditions: for binding percentage of ligand to target: Table 1, ligand 50 μM, IIa target 2.5 μM
[2] = Single dose in vivo pharmacokinetic study; parameters: species or system rats; conditions: plasma, rat, single 3.0 mg/kg IV dose, mean; for AUC: iv, 3 mg/kg
Protocol: A single dose pharmacokinetic study was performed to investigate the pharmacokinetics of representative compounds. Of particular interest was the ability of the compounds to accumulate in liver, which is the target tissue for HCV chemotherapy as it is the primary reservoir of virus. 3-4 rats per group were administered a single dose (3 mg/kg intravenously, IV or 6 mg/kg orally, PO). Blood samples were taken at 0.25, 0.5, 1, 2, 3, 4, 6, and 8 h timepoints, and pharmacokinetic parameters calculated. Both representative compounds were rapidly distributed to tissues, as evidenced by the high clearance rates and volumes of distribution, and low levels of excretion (ca 10% of total drug in urine and feces at 8 h). Major tissues were examined for presence of drug. […] The tissue accumulation for the IV dose is shown in FIG. 1, as a function of concentration and percent of total administered dose.

SMILES: CN(C)CCCn1c(N)nc2ccccc21 [drawing 78]
MS target selectivity ([1]; Table 2): ~3

SMILES: Nc1nc2ccccc2n1CCOc1ccccc1
binding percentage of ligand to target [1]: 6%

MRT [2]: 3.1 h | half-life [2]: 37.5 h | AUC ([2]; read-out: AUC): 311 ng·h/mL | AUC ([2]; read-out: AUC Extrap): 1930 ng·h/mL
SMILES: CN(C)CCCn1c(N)nc2ccc(OCCCN(C)Cc3ccco3)cc21 [IBIS00405678]

SMILES: COc1ccc2nc(N)n(CCCN(C)C)c2c1
MS target selectivity ([1]; Table 2): ~10

MRT [2]: 2 h | half-life [2]: 14 h | AUC ([2]; read-out: AUC): 165 ng·h/mL | AUC ([2]; read-out: AUC Extrap): 320 ng·h/mL
SMILES: CN(C)CC1CNc2nc3ccc(OCCCN(C)Cc4ccccn4)cc3n2C1 (stereo not shown) [IBIS00528637]

SMILES: CN(C)CCCOc1ccc2nc(N)[nH]c2c1
MS target selectivity ([1]; Table 3): ~2

SMILES: CN(C)CCCOc1ccc2nc(N)n(CCCN(C)C)c2c1 [drawing 81]
MS target selectivity ([1]; Table 3): ~15

SMILES: Nc1nc2ccccc2n1CCCN1CCCC1
binding percentage of ligand to target [1]: 15%

SMILES: CN(C)CCn1c(N)nc2ccccc21
binding percentage of ligand to target [1]: 11%

SMILES: CCN(CC)CCn1c(N)nc2ccccc21
binding percentage of ligand to target [1]: 15%

SMILES: CN(C)CCCn1c(N)nc2ccccc21 [drawing 82]
MS target selectivity ([1]; Table 3): ~3

SMILES: CN(C)CCCOc1ccc2nc(N)n(CCCN(C)C)c2c1 [drawing 80]
MS target selectivity ([1]; Table 2): ~15

SMILES: CN(C)CCCn1c(N)nc2ccccc21 [drawing 73]
binding percentage of ligand to target [1]: 56% binding
